Several values for one entry are separate records, joined by “and”; a condition that tells them apart may be missing. Equal entries are not always repeated. Where two headings read alike, the source gives them in different places.
What was measured:
[1] = biological target: T1, AdSS from H. pylori strain 26695 (Helicobacter pylori, UniProt P56137); test: AdSS enzyme activity assay (adenylosuccinate formation, 280 nm); format: biochemical; conditions: for AdSS activity after incubation: 1.23 U/mg in the absence of PLP
T1 construct: made in house; host or cells: E. coli BL21 (DE3)
T1 sequence (P56137 1-411): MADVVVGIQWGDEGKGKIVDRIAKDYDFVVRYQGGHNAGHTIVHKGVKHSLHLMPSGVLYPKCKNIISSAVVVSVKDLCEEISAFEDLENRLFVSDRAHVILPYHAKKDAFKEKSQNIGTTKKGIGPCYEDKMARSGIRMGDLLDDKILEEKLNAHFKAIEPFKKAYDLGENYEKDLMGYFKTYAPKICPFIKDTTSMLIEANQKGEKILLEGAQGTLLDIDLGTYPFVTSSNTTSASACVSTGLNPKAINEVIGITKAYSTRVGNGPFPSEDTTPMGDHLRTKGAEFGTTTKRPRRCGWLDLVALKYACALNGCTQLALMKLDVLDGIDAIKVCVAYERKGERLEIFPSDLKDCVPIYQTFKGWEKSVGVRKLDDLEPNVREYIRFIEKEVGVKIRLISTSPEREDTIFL
Method: Enzymatic activity measurements were carried out in the similar manner as described in Bubić et al. (2018), at 25° C., in cuvettes with an optical path length of 1 cm containing 1 ml of reaction mixture consisting of 20 mM Hepes/NaOH buffer pH 7.7, 1 mM MgSO4 and the substrates, GTP, IMP and Asp. Saturating concentrations of substrates, namely GTP: 0.06 mM, IMP: 0.15 mM and Asp: 5 mM, were used to measure specific activity. The extinction coefficient at 280 nm of 1.17×10^4 M^−1 cm^−1 (adenylosuccinate formation) was used to calculate the concentration of the product formed (Rudolph and Fromm 1969). One unit (U) of AdSS specific activity is defined as μmol of adenylosuccinate produced per minute at 25° C. Specific activity is expressed as units of enzymatic activity per mg of protein (U/mg).
Inhibition of AdSS by PLP was examined first at saturation with all enzyme substrates and with increasing concentrations of the PLP inhibitor.
To determine the extent to which PLP-induced inactivation develops over time, the enzyme at low concentration (0.022 μM) was incubated at 25° C. in Hepes/NaOH buffer pH 7.0, in the presence of 1.11 mM MgSO4, 5.55 mM Asp, 167 μM IMP and PLP at various concentrations (ranging between 0.03 μM and 8.1 μM). The mixture contained all components necessary for the reaction with the exception of GTP, which, according to Dong and Fromm (1990), competes with PLP. Aliquots of 900 μl were taken from the incubated mixture at specified time intervals, placed in a cuvette and 100 μl of 0.6 mM GTP solution was added to initiate the reaction. The enzyme activity was determined and analysed in the known manner as described above.
Exponential decays were fitted to the data obtained for each concentration and the reaction rate constant of the inactivation process, k, and the residual enzymatic activity observed when the system reached equilibrium, A∞, were obtained as fitting parameters. From these parameters, the half-life of the inactivation process activity, t1/2, was calculated. The dependence of these three parameters on PLP concentration is shown in the lower panel of FIG. 12.
The inhibition of AdSS from H. pylori by pyridoxal (PI-h) was studied at saturation with all enzyme substrates and with increasing concentrations of the inhibitor, similar to that for PLP in Example 10a).

[2] = tested on: H. pylori strain M26 (MTZ + CLR resistant); test: Growth curve method / MIC, resistant strain M26; format: cell-based, Helicobacter pylori; conditions: Helicobacter pylori, strain M26, MTZ + CLR resistant
Method: The representative PNP inhibitor from H. pylori included in this study was immucillin A. The experiment was conducted using the growth curve method (two-fold serial dilutions in liquid medium). The tested H. pylori strains were cultured in Petri dishes with BHI solid medium supplemented with 10% FBS and 1% H. pylori Selective Supplement antibiotic kit, in anaerostats under microaerophilic conditions (5% 02, 10% CO2, 85% N2) at 37° C. for 3 days. Liquid culture of H. pylori was conducted overnight with shaking at 37° C. under microaerophilic conditions in BHI medium supplemented with 10% FBS and 1% H. pylori Selective Supplement antibiotic kit. Subsequently, for the essential experiment of determining the minimum inhibitory concentration (MIC), double strengthened liquid BHI medium was prepared, that is, supplemented with 20% FBS and a 2% set of H. pylori Selective Supplement antibiotics.
Bacterial proliferation inhibition experiments were carried out in 24-deep-well 2 ml flat-bottomed plates at a solution volume per well of 0.5 ml. In a single well, double strengthened (relative to the concentration planned for testing) solutions of the test inhibitor and double strengthened liquid BHI medium inoculated with H. pylori (10^4-10^5 CFU/ml in the final volume in the well, corresponding to the optical density of the culture OD600=0.05) were mixed together in a 1:1 ratio.
Kanamycin at a concentration of 25 μg/ml (Irie et al., 1997) was used as a positive control, while Mili-Q deionized water and BHI medium not inoculated with bacteria were used as negative controls. Plates were shaken at 37° C., under microaerophilic conditions. […] After 24 hours, the OD600 of samples containing the negative control, i.e. with Mili-Q deionized water, was about 1.2-1.4, corresponding to a bacterial concentration of about […].
In addition, the method proposed by Knezevic et al. (2018) was used to check whether the observed OD600 was from live bacterial cells. For this purpose, an equal volume of Christensen's double strength urea broth (that is, containing twice the concentration of all components) was added to the wells after incubation, and the plates were additionally incubated for 4 hours in an oxygen atmosphere at 37° C. During incubation, in wells with urease produced by live bacteria, urea is converted to ammonia and carbon dioxide, changing the pH of the solution and thus the colour of the phenol red indicator contained in the medium (from orange to purple).
All experiments were performed in triplicate.
The antibacterial activity of two compounds, mefloquine (in the form of hydrochloride) and quinine, described in the literature as potent in vitro inhibitors of the PNP enzyme from Plasmodium falciparum (Dziekan et al., 2019), was tested. Using a two-fold serial dilution method in liquid medium (as described in Example 3), the MIC values for mefloquine and quinine were determined against clinical H. pylori strains resistant to MTZ, CLR and MTZ+CLR (M26, M91, M92 and M93), as well as the reference H. pylori strain 26695. Four clinical H. pylori strains isolated from adults, from primary infections (the subjects had never previously been treated against H. pylori infection) were tested. These strains come from the collection of the Department of Microbiology of the Medical University of Wroclaw and were obtained due to collaboration with Prof. Grażyna Gościniak, MD, PhD. The tested compounds belong to organic substances and are soluble in DMSO. The maximum tested concentration of quinine in H. pylori culture was 0.56 mM, and that of mefloquine was 2.25 mM. […] On each occasion, the effect of DMSO alone on the growth of the H. pylori strains tested was also checked. […] Kanamycin was used as a positive control and Mili-Q deionised water as a negative control. All experiments were carried out in triplicate. […]

[3] = 8.1 μM PLP, about 10 minutes of incubation without GTP

Row | Compound | effect on AdSS activity ([1]; 400 μM (maximum used), saturating substrates) | MIC ([2]; read-out: MIC) | MIC ([2]; read-out: MIC (Table 7)) | IC50 [1] | AdSS activity after incubation ([1]; 0.03 μM PLP, about 4 hours of incubation without GTP) | inactivation of AdSS ([1]; 0.03 μM PLP, enzyme 0.022 μM incubated without GTP, 25° C.) | inactivation of the enzyme ([1]; 1 μM PLP, incubation without GTP) | decrease in AdSS activity [1, 3] | AdSS activity after incubation [1, 3] | decrease of enzyme activity ([1]; PLP above about 100 μM, saturating substrates, 25° C., pH 7.7)
1 | Cc1ncc(CO)c(C=O)c1O.Cl [PI-h, pyridoxal hydrochloride] | no effect on AdSS activity | 255 µg/mL and 1250 µM | 1.25 µM | – | – | – | – | – | – | –
2 | Cc1ncc(COP(=O)(O)O)c(C=O)c1O [PLP, pyridoxal 5′-phosphate] | – | 309 µg/mL and 1250 µM | 1.25 µM | 13.3 µM | 0.48 U/mg | more than 50% | 90% | about 97% | 0.04 U/mg | 86%
